# According to a melting point compilation (Tetko et al.; mined from patent text by program, amines drawn as free bases though some values may be those of a salt):
row,Compound,melting point [°C]
1,COc1cc(-c2nc(N)sc2CCC2CCC(C)(C)CC2)c(OC)cc1C,136 to 138
2,COC[C@H](C)N1CCc2sc(Nc3ncc(F)cn3)nc2-c2c[nH]nc21,249 to 251
3,O=C(NCC1CCCCC1)NCC1CCCCC1,150 to 152
4,COc1cc(COc2nn(Cc3ccccc3)cc2C=O)ccc1OCc1nc(-c2ccccc2)oc1C,151 to 152
5,O=C(CCc1nc(-c2ccc(Cl)cc2)co1)OCc1ccccc1,66 to 67
6,Cc1ccccc1C(=O)Nc1ccc(C(=O)N2Cc3cccn3Cc3ccccc32)cc1,212 to 215
7,CC(C)=CCN1Cc2cc(Cl)cc3[nH]c(=S)n(c23)C[C@@H]1C,186
8,Cc1nc(N)n(C)c(=O)c1CCN1CCN(c2noc3ccccc23)CC1,201
9,COc1cc(C(=O)C(C#N)C#N)cc(OC)c1OC,158 to 160
10,COc1cc(C(=O)NS(=O)(=O)c2ccccc2C)ccc1Cn1cc(/C=C/C(=O)N(C)C)c2ccc(/C=C/C(=O)N(C)C)cc21,271 to 273
11,OCC(O)Cc1cc(Cl)c2ccccc2c1OCc1ccccc1 (stereo unspecified),69 to 71
12,CO[C@@H](Cc1ccc(OCCc2nc(-c3cc(C)cc(C)c3)oc2C)c2ccccc12)C(=O)O,197 to 198
13,COC(=O)CN(c1cc(OCc2ccccc2)cc2ccc(OC)cc12)S(N)(=O)=O,137 to 139
14,CCOc1cc2cc(CO)nc(-c3ccc(Cl)c([N+](=O)[O-])c3)c2cc1OCC,187 to 188
15,CC(C)(C)CC(C)(C)c1ccc(Oc2cc3nc(-c4ccccc4)oc3cc2[N+](=O)[O-])cc1,183 to 185
16,COc1ccc(C(=O)Nc2ccncc2)c2c1oc1ccc(NC(C)=O)cc12,267 to 268
17,COc1ccc(C(=O)NCc2ccc(CNC(=O)c3ccc(OC)cc3)cc2)cc1,249 to 250
18,COc1cc(Nc2c(C#N)cnc3cc4cc(OC)c(OCCN5CCN(C)CC5)cc4cc23)c(Cl)cc1F,170 to 173
19,COc1cc2c(cc1C)C1(CO2)C(=O)N(Cc2ccccn2)c2ccccc21 (stereo unspecified),142 to 144
20,COc1cccc2c1sc1[nH]c(=O)c(=O)[nH]c12,> 300
21,CC(C)(C)c1ccccc1COc1ccc(N)nn1,147 to 149
22,CN1CCC(N(C)S(=O)(=O)c2ccc(Nc3nc(Cl)cc(Nc4ccc(F)cc4)n3)cc2)CC1,140 to 142
23,Cc1nc2cc3c(cc2o1)C1(CO3)C(=O)Nc2ccccc21 (stereo unspecified),242 to 244
24,COc1ccc(Oc2c(C)noc2NS(=O)(=O)c2ccccc2)cc1,128 to 130
25,O=C(O)CCc1oc(-n2ccnc2-c2ccccc2)nc1-c1ccc(Cl)cc1,179 to 180
26,CC(=O)N[C@@H](C)c1ccc(CO)cc1,103 to 104

row,Compound,melting point [°C]
1,CCCCC12CCC3=C(CCc4cc(OC)ccc43)C1=CCC2=O (stereo unspecified),53 to 55
2,COc1ccc(-c2ccc3[nH]c(C(=O)O)cc3c2)cc1,> 230
3,NS(=O)(=O)c1ccc(NC(=O)C(=O)N2CCC(Cc3ccccc3)CC2)cc1,184 to 187
4,C=CC(=O)NC1=NN(c2c(Cl)cc(Cl)cc2Cl)C(=O)C1c1cc[nH]n1 (stereo unspecified),151 to 154
5,O=C1CCc2c1sc1c2CCCC1,43 to 44
6,CC[C@@H]1NC(C)(C)CO[C@@]1(O)c1cccc(Cl)c1,160 to 161
7,COc1cc(-n2cnc(CO)c2)cc(C(F)(F)F)c1,133 to 134
8,CN(C)C1(c2ccccc2)CCC2(OCCc3c2[nH]c2ccccc32)C(F)C1 (stereo unspecified),245 to 247
9,O=C1CNc2ncc(-c3ccc(C(=O)N4CCC[C@H]4CN4CCCC4)cc3)cc2N1Cc1cc(F)ccc1F,125
10,O=C(O)c1ccc(CO[N+](=O)[O-])cc1,159 to 161
11,CCOC(=O)C(Cc1ccc(OCCn2c(=O)sc3cc(C(=NO)C4CC4)ccc32)cc1)OCC(F)(F)F (stereo unspecified),105 to 107
12,CN(C)S(=O)(=O)n1cnc(-c2ccc(Cl)cc2Cl)c1,169 to 171
13,COC(=O)[C@@H]1C[C@H](C(=O)OC(C)(C)C)N(C(=O)CNC(=O)OC(C)(C)C)[C@@H]1c1ccccc1 (racemic),137
14,O=C(O)c1ccc(=O)n(CCNC(=O)c2ccncc2)c1,> 300
15,O=C(Nc1cc(F)c(-c2ccncc2)c(F)c1)OCc1ccccc1,185 to 186
16,O=C(O)Cc1cccc2c1N=C(c1ccccc1F)CC2=O,243 to 245
17,CSc1ccc(-c2cncn2-c2ccc(S(C)(=O)=O)cc2)cc1,153 to 155
18,Cc1ccc(S(F)(F)(F)(F)F)cc1[N+](=O)[O-],29 to 30
19,COc1ccccc1CNc1cccnc1Cl,121 to 125
20,COc1ccc(Nc2nc(Cl)nc(NCCO)n2)cc1,169 to 173
21,COc1cc2ncc(C#N)c(Nc3cccc(CO)c3C)c2cc1OC,123 to 125
22,O=C1C(c2ccccc2)=C(c2ccccc2)C(=O)N1CCc1cccc(F)c1,129 to 130
23,CC(C)CC(=O)N[C@H]1CC[C@H](CCN2CCC(c3cccc4c3CCO4)CC2)CC1,197
24,CNc1ccc(N2CCC(C)CC2)c(C(=O)c2ccc(Cl)cc2)c1,177
25,Cc1nc(N2CCOCC2)c2c(n1)N(CC(O)CO)C(=O)CO2 (stereo unspecified),153 to 155
26,COc1ccc(-n2nc(Sc3ccc(C)cc3C)c(C)c(C#N)c2=O)cc1,166 to 168

row,Compound,melting point [°C]
1,COC(=O)CCc1ccc(NC(=O)C(COC2CCCCO2)NS(=O)(=O)c2ccc(Cl)cc2)cc1 (racemic),102 to 107
2,CCOC(=O)c1c(OCC)ccn1C(=O)n1cccc1C(=O)O,58 to 60
3,C=C(C)C(=O)OCCCOc1cc(-n2nc3ccc(OC)cc3n2)c(O)c(C(C)(C)C)c1,114 to 116
4,COc1ccc(N2CCN(c3c(C)c(C)c4c(c3C)C(C(C)(C)C)C(C)(C)O4)CC2)cc1 (stereo unspecified),144 to 146
5,O=C(O)[C@H]1Cc2ccccc2CN1S(=O)(=O)c1ccc([N+](=O)[O-])cc1,140
6,COC(=O)C(C(=O)C(C)C)=C(N)c1ccc(F)cc1,85.8 to 86.6
7,CCC(C)N1C(=O)c2ccc(C)nc2C1=O (stereo unspecified),105 to 106
8,COC(=O)CCCc1cc2nc(Cl)ccc2n1S(=O)(=O)c1ccc(I)cc1,117 to 118
9,Cc1cc(-c2cc(C(F)(F)F)n3nccc3n2)ccc1C(F)(F)F,87
10,O=[N+]([O-])C=C(NCc1ccc(Cl)nc1)NCc1ccc(Cl)nc1,238 to 240
11,N#Cc1cnn2c(C(F)(F)F)cc(-c3ccccn3)nc12,208
12,COc1cccc(C(=O)c2cccc(F)c2)c1,56 to 67
13,Cc1cc(C)nc(Sc2ccnc3cc(Cl)cc(Cl)c23)n1,182 to 183
14,CC(C)CNC(=O)Nc1c(C(=O)c2ccccc2)[nH]c2cc(Cl)ccc12,235 to 238
15,CCC(=NNc1ccc(C2=NNC(=O)CC2)cc1)c1ccncc1,235 to 237
16,CCN(CC(O)CCl)c1ccc2c(c1)C(=O)N(C)C2=O (stereo unspecified),123
17,O=C(NCc1cccs1)C1CCCCC1,105
18,Cc1ccc(N=C(NC#N)NCc2ccc3c(c2)CN(C2CCC(=O)NC2=O)C3=O)cc1Cl (stereo unspecified),325 to 327
19,CC(C)NNC(=O)c1ccc(Cl)c(Cl)c1,112 to 115
20,CCN(CC)S(=O)(=O)N1CCNC1=O,80 to 82
21,CC(C)CNC(=O)c1ccc(C2CC2c2ccc(Cl)cc2)cc1 (stereo unspecified),110
22,O=C1N=c2ccc(OCCBr)cc2=N1,225 to 226
23,CC(=NO)c1ccc2c(c1)oc1ccccc12,132 to 135
24,Cc1ncc(-c2ccc(F)cc2)n1-c1ccc(Cl)cc1,132 to 134
25,Cc1cccc(NC(=O)CN2c3ccc(Cl)c(Cl)c3[C@@H]3CCN(C(=O)OC(C)(C)C)CC[C@@H]32)c1C (relative stereo),146
26,CCCCCCCCCCc1cc(CO)on1,55 to 56

row,Compound,melting point [°C]
1,CC1(C)SC(c2ccc([N+](=O)[O-])o2)NC1C(=O)O (stereo unspecified),147 to 148
2,CCN1c2ncc(OCc3ccccc3)cc2C(=O)N(C)c2ccc(Cl)nc21,159 to 160
3,Cc1cccc(Cn2ncc3c(N4CCN(C(=O)OC(C)(C)C)CC4)ncnc32)c1,130 to 131
4,O=[N+]([O-])C=C1SCCCN1S(=O)(=O)CCCO,80 to 83
5,CC(=O)Nc1ccc(C(=O)NC(=O)N2CCC(Oc3ccc(Cl)cc3)CC2)cc1,79
6,CC(=O)c1cc(C(C)=O)c(OCCCCC#N)cc1O,105 to 106
7,CC1(C)OC(=O)Nc2ccc(-c3ccc(F)c(Cl)c3)cc21,211 to 212
8,CON(C(=O)c1ccc(C(=O)C(C)(C)C)cc1)C(=O)c1ccc(C(=O)C(C)(C)C)cc1,103 to 105
9,C[C@]12CCC(=O)C=C1CC[C@@H]2c1cn(Cc2ccccc2)nn1,122 to 125
10,CCOc1ccc(-c2nc(CCC(=O)O)cs2)cc1OCC,111 to 114
11,O=C(c1cccs1)c1cnn2c(-c3cccc(OC4CCCC4)c3)ccnc12,135 to 138
12,CNc1cc(C(F)(F)F)cc(N(CCN(C)C)C(=O)N(C)C)n1,101 to 103
13,COC(=O)c1ccc(-c2ccc(C#N)cc2)nc1,142 to 144
14,CC(=O)C1CCC2C3CCC4CC(=O)CCC4(C)C3C(OC(=O)CCl)CC12C (stereo unspecified),133 to 135
15,C#CCn1c(=O)c2c(nc(C#Cc3cccc(OC(C)=O)c3)n2C)n(C)c1=O,238
16,O=C(NCCc1ccc([N+](=O)[O-])cc1)C(F)(F)F,96 to 97
17,CCOC(=O)c1cc(=O)cc(-c2ccc(O)cc2)o1,213 to 215
18,COC(=O)CCCNC(=O)C(CO)NS(=O)(=O)c1ccc(Cl)cc1 (racemic),119 to 121
19,CCOC(=O)c1cn(-c2nc(OC)c(F)cc2F)c2c(Cl)c(F)c(F)cc2c1=O,140 to 143
20,Cc1cc(N)nc(C)c1-c1ccc(Cl)cc1,148 to 152
21,COCc1nnc(-c2cccnc2)n1-c1c(Cl)c(C)cc2[nH]c(=O)c(=O)[nH]c12,229 to 231
22,CC(C)(C(=O)c1ccc(N2CCCCC2)cc1)N1CCOCC1,159 to 162
23,CC12C=CC(=O)C=C1CCC1C2CCC2(C)C(=O)CCC12 (stereo unspecified),138 to 139
